According to patent US20200360471A1, “METHODS OF TREATING AND PREVENTING VIRAL INFECTIONS” (priority 2017, published 2020):
Peptide text beside a SMILES is read from it. * marks the point of attachment. Decanoyl = CCCCCCCCCC(=O)*; CH2Cl = ClC*

Experiments:
[1] = test system: toll-like receptor 3 (TLR3) pathways / RIG-1/Mda5; experiment: Qualification of the polyI:C PBMC challenge (cytokine release, 24 hrs); assay type: cell-based, human
Procedure: Peripheral Blood Mononuclear Cells (PBMCs) were isolated from sodium heparinized blood samples from healthy donors using SEPMATE with LYMPHOPREP ([…] TECHNOLOGIES) based on ficoll density centrifugation. Primary cell cultures were prepared in RPMI including 5% autologous plasma. Isolated PBMC cells were cultured in 96-well plates at a density of 0.5×10^6cells/well at 37° C., under humidified 5% CO2.
IL-1β, TNFα, IL-6 and IL-8 were measured simultaneously with a fixed electrochemoluminescence platform based on the sandwich ELISA principle of capture and detection antibodies, produced by MESO SCALE DISCOVERY (MSD, MESO SCALE QUICKPLEX SQ120). The applied assay was the V-PLEX PLUS pro-inflammatory cytokine panel II, including IL-1β, TNFα, IL-6 and IL-8. This assay includes manufacturer-provided control samples with indicated nominal values for comparison. These lyophilized controls, i.e. freeze-dried controls for IL-1β, TNFα, IL-6, IL-8, were prepared freshly at the time of use. […]
IFNα was quantified by a sandwich ELISA based on specific capture and detection antibodies for various matrices (MABTECH), according to the manufacturer's instructions. […]
IFNβ was quantified by a sandwich ELISA based on specific capture and detection antibodies for various matrices (PBL ASSAY SCIENCE), according to the manufacturer's instructions. […]

[2] = test system: TLR7; experiment: Ongoing inflammation in PBMC cultures: imiquimod 3 hrs followed by omiganan 21 hrs; assay type: cell-based, human; conditions: imiquimod alone, PBMC
Procedure: (§1) Primary cell cultures were prepared in RPMI including 5% autologous plasma. Isolated PBMC cells were cultured in 96-well plates at a density of 0.5×10^6cells/well at 37° C., under humidified 5% CO2.
(§2) IL-1β, TNFα, IL-6 and IL-8 were measured simultaneously with a fixed electrochemoluminescence platform based on the sandwich ELISA principle of capture and detection antibodies, produced by MESO SCALE DISCOVERY (MSD, MESO SCALE QUICKPLEX SQ120). The applied assay was the V-PLEX PLUS pro-inflammatory cytokine panel II, including IL-1β, TNFα, IL-6 and IL-8. This assay includes manufacturer-provided control samples with indicated nominal values for comparison. These lyophilized controls, i.e. freeze-dried controls for IL-1β, TNFα, IL-6, IL-8, were prepared freshly at the time of use. QC samples were prepared from the calibrator at 3 different concentrations along the standard curve as multiple aliquots from a single batch and maintained at −20° C. Low, medium and high concentration controls were included in every multiplex assay run to control intra- and inter-assay variation. V-PLEX panels are specific for the detection of human chemokines and cytokines, and combinations have been validated by the manufacturer, to ensure no cross-reactivity.
Briefly, PBMC primary cultures were prepared from 4 donors. […] The readouts for the following cytokine and chemokine release were measured: IL-1β, IL-2, IL-4, IL-6, IL-8 HA, IL-8, IL-12p70, IL-13, IFN-γ, and TNF-α were measured. The cultures were prepared in duplicate.

[3] = test system: HPVS PsV; conditions: read-out: IC50, inhibition of uptake of HPVS PsV; PsV 1:6000 dilution, 293TT cells
Procedure: Pseudovirus (PsV) of HPVS was prepared using method described by Buck et al, (Journal of Virology, January 2004; 751-757) and used as a model HPV in this study. The PsV stocks were prepared by co-transfecting human 293TT cells with HPVS viral plasmid p5Shell containing codon-modified papillomavirus capsid genes for L1 and L2 proteins, and pcLucF reporter plasmid containing the luciferase gene for detecting viral infection. The cell lysates containing the capsidized virus was used as the PsV stock. Optimal PsV dilution factor was determined based on the luciferase activity in 293TT cells infected with serially diluted HPVS PsV.
Data were collected on a Molecular Devices Flexstation 3 Microplate Reader using Softmax Pro v5.4.4. Data analysis was performed on Prism software using four parameter logistic model. […] Furin Inhibitor I was used as a positive control for HPVS PsV inhibition since it blocks the viral entry into host cells.
Two runs were performed for each dilution level.

[4] = test system: TLR3/RIG-1/Mda5; experiment: polyI:C-induced cytokine responses in PBMC cultures with peptide pre-treatment; assay type: cell-based, human; conditions: 5 or 25 μg/mL peptide, 30 min pre-treatment, 24 hrs
Procedure: as §1, §2
(§3) IFNα was quantified by a sandwich ELISA based on specific capture and detection antibodies for various matrices (MABTECH), according to the manufacturer's instructions. QC samples were prepared from the calibrator at 3 different concentrations along the standard curve as multiple aliquots from a single batch and maintained at −20° C.
as §3, with “IFNβ” for “IFNα”, “(PBL ASSAY SCIENCE),” for “(MABTECH),”, “C. freezer.” for “C.”
(§4) Briefly, PBMC primary cultures were prepared from 4 healthy donors (2 males, 2 females) as described above. […] The cultures were prepared in duplicate and the readouts for pan-IFNα and IFNβ (ELISA) were measured once. Five-point concentration-response curves were constructed for the various treatment conditions in the PBMC cultures, freshly isolated from 4 subjects.

[5] = test system: TLR7; experiment: imiquimod-induced cytokine responses in PBMC cultures with peptide pre-treatment; assay type: cell-based, human
Procedure: as §1, §2, §3
as §3, with “IFNβ” for “IFNα”, “(PBL ASSAY SCIENCE),” for “(MABTECH),”, “C. freezer.” for “C.”
as §4

[6] = 5 or 25 μg/mL peptide, 30 min pre-treatment, 24 hrs
[7] = right-shift of imiquimod concentration response curves

Compound: PolyI:C
- PBMC response (cytokines) ([1]; absence of the transfection carrier Lyovec): mild PBMC response
- PBMC response (cytokines) ([1]; presence of Lyovec transfection carrier): substantial polyI:C-driven responses

Compound: CC(C)Cn1cnc2c(N)nc3ccccc3c21 [Imiquimod, imiquimod]
- concentration-effect relationship for IL-6 and TNF-α [2]: bell-shaped
- imiquimod concentration inducing IL-6 release [2]: exceeding 0.4 μg/ml
- imiquimod concentration inducing IL-8 release [2]: exceeding 0.4 μg/ml
- imiquimod concentration inducing TNF-α release [2]: exceeding 0.4 μg/ml
- imiquimod concentration needed for IL-10 release [2]: exceeding 2 μg/ml

Compound: CCCCCCCCCC(=O)N[C@@H](CCCN=C(N)N)C(=O)N[C@H](C(=O)N[C@@H](CCCCN)C(=O)N[C@@H](CCCN=C(N)N)C(=O)CCl)C(C)C [Furin Inhibitor I, reference compound] (Decanoyl-RVKR-CH2Cl)
- IC50 [3]: 200 nM

Compound: LLGDFFRKSKEKIGKEFKRIVQRIKDFLRNLVPRTES (LLGDFFRKSKEKIGKEFKRIVQRIKDFLRNLVPRTES; LL-37 peptide) [antimicrobial peptide belonging to the cathelicidin family, synthesized by ANASPEC]
- IL-6 responses to polyI:C (TLR3/RIG-1/Mda5) [4]: did not significantly affect
- TNFα responses to polyI:C (TLR3/RIG-1/Mda5) [4]: did not significantly affect
- polyI:C-driven IL-1β release [4]: did not significantly affect
- spontaneous and polyI:C-driven IL-8 release [4]: strongly inhibited
- interferon responses induced by polyI:C stimulation ([4]; PBMC of 4 donors): enhanced
- IL-6 responses to imiquimod (TLR7) [5, 6]: inhibited
- TNFα responses to imiquimod (TLR7) [5, 6]: inhibited
- interferon responses in the presence of imiquimod ([5]; 5 or 25 μg/mL peptide, 30 min pre-treatment, 24 hrs, PBMC of 4 donors): induced strong interferon responses
- IL-1(3 responses to imiquimod (TLR7)) [5, 7]: inhibited
- IL-8 responses to imiquimod (TLR7) [5, 7]: inhibited
